Assay results from ChEMBL document CHEMBL5291721, “A preclinical secondary pharmacology resource illuminates target-adverse drug reaction associations of marketed drugs” (Nat Commun, 2023).

Assays:
Estrogen receptor [1] = target: T1, Estrogen receptor (Homo sapiens, UniProt P03372); type: functional
T1 sequence (P03372 whole entry): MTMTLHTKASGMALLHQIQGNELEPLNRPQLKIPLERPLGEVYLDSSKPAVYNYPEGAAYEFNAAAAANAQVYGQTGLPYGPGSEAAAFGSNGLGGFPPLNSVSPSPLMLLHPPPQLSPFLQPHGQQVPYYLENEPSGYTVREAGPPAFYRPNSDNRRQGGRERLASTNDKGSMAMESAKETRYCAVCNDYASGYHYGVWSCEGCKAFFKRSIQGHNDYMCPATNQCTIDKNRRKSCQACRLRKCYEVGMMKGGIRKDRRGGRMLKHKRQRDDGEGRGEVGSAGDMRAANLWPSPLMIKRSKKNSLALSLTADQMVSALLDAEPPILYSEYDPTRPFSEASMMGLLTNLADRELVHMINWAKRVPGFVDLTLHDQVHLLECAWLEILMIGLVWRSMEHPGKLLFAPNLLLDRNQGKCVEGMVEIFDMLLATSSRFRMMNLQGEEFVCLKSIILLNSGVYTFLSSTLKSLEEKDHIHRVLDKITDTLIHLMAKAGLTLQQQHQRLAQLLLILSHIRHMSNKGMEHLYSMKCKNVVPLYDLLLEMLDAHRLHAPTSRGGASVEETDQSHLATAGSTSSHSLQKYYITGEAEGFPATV

[2] = target: T2, Gamma-aminobutyric acid receptor subunit alpha-1/alpha-2/beta-2/gamma-2 (Homo sapiens, UniProt P14867+P18507+P47869+P47870); type: functional, cell-based
Estrogen receptor [3] = target: T1, Estrogen receptor; type: functional; remark: listed apart in the source
[4] = target: Vascular endothelial growth factor receptor 2 (Homo sapiens, UniProt P35968); type: functional
[5] = target: Sodium channel protein type 5 subunit alpha (Homo sapiens, UniProt Q14524); type: functional, cell-based
[6] = target: T2, Gamma-aminobutyric acid receptor subunit alpha-1/alpha-2/beta-2/gamma-2; type: protein-complex assay
[7] = target: T3, Alpha-1A adrenergic receptor (Homo sapiens, UniProt P35348)
T3 sequence (P35348 whole entry): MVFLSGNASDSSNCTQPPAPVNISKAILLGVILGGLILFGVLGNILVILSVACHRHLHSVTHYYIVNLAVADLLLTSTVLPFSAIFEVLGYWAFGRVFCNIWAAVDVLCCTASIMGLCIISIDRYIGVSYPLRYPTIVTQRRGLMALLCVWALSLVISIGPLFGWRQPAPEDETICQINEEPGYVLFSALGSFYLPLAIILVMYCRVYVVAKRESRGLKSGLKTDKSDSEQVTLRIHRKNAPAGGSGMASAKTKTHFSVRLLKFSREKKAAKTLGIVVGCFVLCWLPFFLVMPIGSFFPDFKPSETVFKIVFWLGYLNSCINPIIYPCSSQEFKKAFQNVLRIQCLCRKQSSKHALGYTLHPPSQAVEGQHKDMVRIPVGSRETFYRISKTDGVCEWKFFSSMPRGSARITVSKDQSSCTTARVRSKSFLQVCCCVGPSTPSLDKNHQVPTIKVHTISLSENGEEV

Estrogen receptor [8] = target: T1, Estrogen receptor
Androgen receptor = target: T4, Androgen receptor (Homo sapiens, UniProt P10275)
T4 sequence (P10275 whole entry): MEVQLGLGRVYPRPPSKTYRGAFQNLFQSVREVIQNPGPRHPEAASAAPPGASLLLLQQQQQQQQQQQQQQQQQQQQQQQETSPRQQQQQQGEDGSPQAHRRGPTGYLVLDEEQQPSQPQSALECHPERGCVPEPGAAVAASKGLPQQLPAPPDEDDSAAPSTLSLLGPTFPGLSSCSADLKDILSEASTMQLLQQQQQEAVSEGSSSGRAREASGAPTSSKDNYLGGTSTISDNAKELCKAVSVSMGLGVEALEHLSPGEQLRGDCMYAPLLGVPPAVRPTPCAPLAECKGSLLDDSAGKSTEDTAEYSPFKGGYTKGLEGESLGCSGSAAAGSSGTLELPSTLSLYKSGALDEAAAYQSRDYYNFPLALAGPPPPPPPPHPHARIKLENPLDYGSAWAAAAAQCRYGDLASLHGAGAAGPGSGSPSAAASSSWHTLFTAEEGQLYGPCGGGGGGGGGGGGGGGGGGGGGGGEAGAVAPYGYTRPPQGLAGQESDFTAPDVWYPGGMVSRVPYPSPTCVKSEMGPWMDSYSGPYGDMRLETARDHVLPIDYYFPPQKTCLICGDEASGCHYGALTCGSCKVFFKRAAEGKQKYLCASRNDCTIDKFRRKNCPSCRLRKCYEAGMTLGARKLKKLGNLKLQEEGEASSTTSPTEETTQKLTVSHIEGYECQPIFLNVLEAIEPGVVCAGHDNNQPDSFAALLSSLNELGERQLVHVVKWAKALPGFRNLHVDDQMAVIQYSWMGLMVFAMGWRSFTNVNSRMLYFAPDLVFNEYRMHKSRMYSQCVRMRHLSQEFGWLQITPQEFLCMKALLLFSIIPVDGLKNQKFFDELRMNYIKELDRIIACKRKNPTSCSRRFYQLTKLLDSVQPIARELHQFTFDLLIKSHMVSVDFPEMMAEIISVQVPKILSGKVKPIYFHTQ

Adenosine receptor A1 = target: T5, Adenosine receptor A1 (Homo sapiens, UniProt P30542)
T5 sequence (P30542 whole entry): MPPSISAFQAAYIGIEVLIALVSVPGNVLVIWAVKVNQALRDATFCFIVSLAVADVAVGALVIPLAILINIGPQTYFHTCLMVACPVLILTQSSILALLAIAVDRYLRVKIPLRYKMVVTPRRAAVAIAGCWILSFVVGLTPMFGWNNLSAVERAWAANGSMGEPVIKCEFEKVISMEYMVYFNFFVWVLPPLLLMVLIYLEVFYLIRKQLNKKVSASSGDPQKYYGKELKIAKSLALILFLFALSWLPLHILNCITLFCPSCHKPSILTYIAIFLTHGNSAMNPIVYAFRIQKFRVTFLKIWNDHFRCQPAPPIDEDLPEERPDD
Also: assay procedure not described here.

Sodium channel protein type 5 subunit alpha, sequence (Q14524 whole entry): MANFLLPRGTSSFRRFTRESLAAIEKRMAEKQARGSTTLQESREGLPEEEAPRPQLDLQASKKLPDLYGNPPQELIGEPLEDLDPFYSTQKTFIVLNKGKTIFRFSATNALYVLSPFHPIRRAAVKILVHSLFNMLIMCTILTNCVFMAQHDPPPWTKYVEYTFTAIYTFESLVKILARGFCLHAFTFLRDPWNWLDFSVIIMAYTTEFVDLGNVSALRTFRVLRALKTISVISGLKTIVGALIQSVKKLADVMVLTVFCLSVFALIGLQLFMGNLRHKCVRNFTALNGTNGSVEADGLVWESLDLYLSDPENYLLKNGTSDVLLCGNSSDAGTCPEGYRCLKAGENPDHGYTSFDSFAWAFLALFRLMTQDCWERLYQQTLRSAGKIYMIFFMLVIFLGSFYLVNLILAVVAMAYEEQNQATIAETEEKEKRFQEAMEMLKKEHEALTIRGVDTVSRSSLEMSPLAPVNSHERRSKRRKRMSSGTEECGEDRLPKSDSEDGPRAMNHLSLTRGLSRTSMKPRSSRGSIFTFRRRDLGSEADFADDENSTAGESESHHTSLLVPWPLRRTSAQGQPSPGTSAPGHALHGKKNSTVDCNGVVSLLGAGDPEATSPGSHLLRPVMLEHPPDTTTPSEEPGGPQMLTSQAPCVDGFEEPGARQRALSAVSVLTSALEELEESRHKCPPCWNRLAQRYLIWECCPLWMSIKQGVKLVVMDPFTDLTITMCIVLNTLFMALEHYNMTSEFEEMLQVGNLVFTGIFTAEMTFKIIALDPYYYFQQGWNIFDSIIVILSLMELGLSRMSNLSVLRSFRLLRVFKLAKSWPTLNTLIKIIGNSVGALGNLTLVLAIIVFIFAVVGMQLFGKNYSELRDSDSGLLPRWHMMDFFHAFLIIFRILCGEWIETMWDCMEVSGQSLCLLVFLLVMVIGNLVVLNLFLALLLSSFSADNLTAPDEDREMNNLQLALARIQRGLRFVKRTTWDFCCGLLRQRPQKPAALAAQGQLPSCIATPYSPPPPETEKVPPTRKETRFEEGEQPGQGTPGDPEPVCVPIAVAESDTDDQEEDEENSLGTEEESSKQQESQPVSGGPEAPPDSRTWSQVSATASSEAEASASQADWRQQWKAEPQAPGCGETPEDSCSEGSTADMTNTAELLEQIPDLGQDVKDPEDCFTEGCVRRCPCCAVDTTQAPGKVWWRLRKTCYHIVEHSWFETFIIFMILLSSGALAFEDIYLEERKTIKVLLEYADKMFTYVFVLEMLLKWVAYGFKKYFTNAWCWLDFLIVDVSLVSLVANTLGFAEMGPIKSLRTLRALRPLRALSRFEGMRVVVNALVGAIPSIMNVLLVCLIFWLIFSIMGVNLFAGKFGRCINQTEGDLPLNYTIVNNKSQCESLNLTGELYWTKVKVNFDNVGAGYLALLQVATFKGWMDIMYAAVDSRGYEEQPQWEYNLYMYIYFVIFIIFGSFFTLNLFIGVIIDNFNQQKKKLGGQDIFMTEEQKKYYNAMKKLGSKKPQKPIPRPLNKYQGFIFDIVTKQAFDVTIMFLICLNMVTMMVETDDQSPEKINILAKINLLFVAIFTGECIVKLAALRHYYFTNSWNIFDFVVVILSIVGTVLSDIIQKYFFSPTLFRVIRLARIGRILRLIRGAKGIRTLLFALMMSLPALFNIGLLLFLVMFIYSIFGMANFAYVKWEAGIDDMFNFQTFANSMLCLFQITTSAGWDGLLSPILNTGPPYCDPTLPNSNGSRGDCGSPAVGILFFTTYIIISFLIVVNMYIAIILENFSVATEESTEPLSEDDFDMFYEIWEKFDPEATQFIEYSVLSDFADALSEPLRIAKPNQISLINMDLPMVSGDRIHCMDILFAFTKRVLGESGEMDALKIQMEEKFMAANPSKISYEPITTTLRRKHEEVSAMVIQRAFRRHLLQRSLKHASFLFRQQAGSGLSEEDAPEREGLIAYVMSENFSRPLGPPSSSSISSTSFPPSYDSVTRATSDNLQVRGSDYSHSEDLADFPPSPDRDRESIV
Vascular endothelial growth factor receptor 2, sequence (P35968 whole entry): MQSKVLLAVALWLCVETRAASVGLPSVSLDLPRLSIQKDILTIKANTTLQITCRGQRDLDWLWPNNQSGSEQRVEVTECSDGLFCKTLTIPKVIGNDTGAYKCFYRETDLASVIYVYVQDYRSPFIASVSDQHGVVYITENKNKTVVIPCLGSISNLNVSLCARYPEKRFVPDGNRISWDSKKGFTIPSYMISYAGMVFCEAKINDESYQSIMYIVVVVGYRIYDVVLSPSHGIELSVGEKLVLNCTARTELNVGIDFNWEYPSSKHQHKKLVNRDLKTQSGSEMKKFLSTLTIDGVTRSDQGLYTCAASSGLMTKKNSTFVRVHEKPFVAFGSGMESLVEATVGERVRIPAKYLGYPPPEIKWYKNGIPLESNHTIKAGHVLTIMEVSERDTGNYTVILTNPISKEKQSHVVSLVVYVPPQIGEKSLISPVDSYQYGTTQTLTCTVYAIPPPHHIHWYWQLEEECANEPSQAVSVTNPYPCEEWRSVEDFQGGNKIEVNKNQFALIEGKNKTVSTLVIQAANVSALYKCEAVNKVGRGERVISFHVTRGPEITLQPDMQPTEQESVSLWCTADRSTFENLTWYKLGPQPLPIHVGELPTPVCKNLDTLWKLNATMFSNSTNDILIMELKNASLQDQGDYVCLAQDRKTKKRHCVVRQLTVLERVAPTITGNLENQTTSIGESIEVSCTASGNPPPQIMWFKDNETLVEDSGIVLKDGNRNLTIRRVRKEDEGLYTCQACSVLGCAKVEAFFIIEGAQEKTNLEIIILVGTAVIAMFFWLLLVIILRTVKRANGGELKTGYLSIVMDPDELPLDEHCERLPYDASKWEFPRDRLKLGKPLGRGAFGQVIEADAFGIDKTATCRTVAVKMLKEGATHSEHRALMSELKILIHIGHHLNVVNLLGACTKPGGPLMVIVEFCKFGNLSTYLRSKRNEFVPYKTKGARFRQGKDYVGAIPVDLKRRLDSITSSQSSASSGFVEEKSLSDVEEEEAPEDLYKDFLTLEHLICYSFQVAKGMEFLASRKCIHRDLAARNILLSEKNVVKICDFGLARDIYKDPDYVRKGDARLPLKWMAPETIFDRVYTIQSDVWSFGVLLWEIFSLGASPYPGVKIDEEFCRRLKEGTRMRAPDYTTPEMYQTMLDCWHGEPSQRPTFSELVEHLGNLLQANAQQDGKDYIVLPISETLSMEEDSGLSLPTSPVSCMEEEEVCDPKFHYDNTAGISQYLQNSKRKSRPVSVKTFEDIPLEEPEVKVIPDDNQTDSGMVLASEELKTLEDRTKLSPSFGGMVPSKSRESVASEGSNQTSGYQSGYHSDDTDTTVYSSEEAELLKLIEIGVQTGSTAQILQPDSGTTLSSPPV

Structure (SMILES) | AC50 (Estrogen receptor [1]) [µM] | AC50 [2] [µM] | AC50 (Estrogen receptor [3]) [µM] | AC50 [4] [µM] | AC50 [5] [µM] | AC50 [6] [µM] | AC50 [7] [µM] | AC50 (Estrogen receptor [8]) [µM] | AC50 (Androgen receptor) [µM] | AC50 (Adenosine receptor A1) [µM]
CN1CC2c3ccccc3Oc3ccc(Cl)cc3C2C1 (stereo not drawn) [ASENAPINE] | > 30 | > 30 | > 30 | > 30 | 2 | – | – | – | – | –
CN(C)CCC=C1c2ccccc2CCc2ccccc21 [AMITRIPTYLINE] | – | – | – | > 30 | 1.81 | > 30 | 0.0299 | > 30 | – | –
CCOCC(O)COc1ccc(NC(=O)CC[S+](C)C)cc1 (stereo not drawn) | > 30 | > 30 | > 30 | – | – | – | – | – | – | –
O=C(O)[C@H]1/C(=C/CO)O[C@@H]2CC(=O)N21 [CLAVULANIC ACID] | > 30 | > 30 | > 30 | – | – | – | – | – | – | –
CCC[C@@]1(CCc2ccccc2)CC(O)=C([C@H](CC)c2cccc(NS(=O)(=O)c3ccc(C(F)(F)F)cn3)c2)C(=O)O1 | – | > 30 | – | > 30 | > 50 | – | – | – | – | –
CC(C)(CO)c1cc2cc(NC(=O)C3(c4ccc5c(c4)OC(F)(F)O5)CC3)c(F)cc2n1C[C@@H](O)CO [TEZACAFTOR] | > 30 | > 30 | > 30 | – | 42 | – | – | – | – | –
CC(=O)NC[C@H]1CN(c2ccc(N3CCOCC3)c(F)c2)C(=O)O1 [LINEZOLID] | – | – | – | – | > 50 | – | – | – | – | –
O=C1[C@@H]2[C@H]3CC[C@H](C3)[C@@H]2C(=O)N1C[C@@H]1CCCC[C@H]1CN1CCN(c2nsc3ccccc23)CC1 [LURASIDONE] | > 30 | > 30 | > 30 | > 30 | 41 | > 30 | – | – | > 30 | –
CC(=O)Oc1ccccc1C(=O)O [ASPIRIN] | – | – | – | > 30 | > 30 | > 30 | > 10 | 15.1 | > 30 | –
N#Cc1ccnc(N2C(=O)CC[C@H]2C(=O)N(c2cncc(F)c2)[C@H](C(=O)NC2CC(F)(F)C2)c2ccccc2Cl)c1 [IVOSIDENIB] | – | – | – | – | > 50 | > 30 | – | – | > 30 | –
C[C@H](Nc1ncnc2[nH]cnc12)c1cc2cccc(Cl)c2c(=O)n1-c1ccccc1 [DUVELISIB] | > 30 | > 30 | > 30 | > 30 | > 50 | – | – | – | > 30 | > 30
Cc1c(C)c2c(c(C)c1O)CCC(C)(COc1ccc(CC3SC(=O)NC3=O)cc1)O2 (stereo not drawn) [TROGLITAZONE] | > 30 | > 30 | > 30 | – | – | > 3 | 12.5 | > 30 | 5.72 | –
CCOC(=O)[C@H](CCc1ccccc1)N[C@@H](C)C(=O)N1Cc2ccccc2C[C@H]1C(=O)O | – | – | – | – | > 30 | – | > 10 | > 30 | – | –
c1cnc2cc3c(cc2n1)[C@@H]1CNC[C@H]3C1 [VARENICLINE] | 4.6 | > 30 | > 30 | > 30 | – | – | – | – | – | –
Cn1cnc2c(F)c(Nc3ccc(Br)cc3F)c(C(=O)NOCCO)cc21 [BINIMETINIB] | > 30 | > 30 | > 30 | > 30 | > 30 | – | – | – | – | –
Nc1c2c(nc3ccccc13)CCCC2O (stereo not drawn) [VELNACRINE] | > 10 | > 30 | > 30 | > 30 | – | – | – | – | – | –
C[C@H](CCC(=O)O)[C@H]1CC[C@H]2[C@@H]3[C@H](O)C[C@@H]4C[C@H](O)CC[C@]4(C)[C@H]3CC[C@]12C [CHENODIOL] | > 30 | > 30 | > 30 | > 3 | > 50 | – | – | – | – | –
Nc1nnc(-c2cccc(Cl)c2Cl)c(N)n1 [LAMOTRIGINE] | – | – | – | – | > 50 | – | > 10 | – | – | –
COc1cc2c(cc1OC)C1CC(=O)C(CC(C)C)CN1CC2 (stereo not drawn) [TETRABENAZINE] | > 30 | > 30 | > 30 | > 30 | – | – | – | – | – | –
CN(C)CCCC1(c2ccc(F)cc2)OCc2cc(C#N)ccc21 (stereo not drawn) [CITALOPRAM] | – | – | – | – | > 30 | – | – | > 30 | – | > 30
NCC1(CC(=O)O)CCCCC1 [GABAPENTIN] | – | > 30 | – | > 30 | > 30 | > 30 | > 10 | – | – | –
C[C@@H](O)[C@H]1C(=O)N2C(C(=O)O)=C(SCCN=CN)C[C@H]12 [IMIPENEM ANHYDROUS] | > 300 | > 2000 | > 300 | > 300 | – | – | – | – | – | –
CO[C@@H]1[C@@H](OC(N)=O)[C@@H](O)[C@H](Oc2ccc3c(O)c(NC(=O)c4ccc(O)c(CC=C(C)C)c4)c(=O)oc3c2C)OC1(C)C [NOVOBIOCIN] | > 30 | > 30 | > 30 | 25 | > 50 | – | – | – | – | –
